Experimental data: patent US8927571B2, “Pyrido[4,3-B]indoles and methods of use” (Medivation Technologies, Inc., priority 2009, dated 2015)

Molecular target: T1, human recombinant serotonin (5-Hydroxytryptamine) 5-HT2A receptor (Homo sapiens, UniProt P28223)
T1 construct: expressed in transfected cells; host or cells: Chinese hamster ovary (CHO-K1) cells
Test: Serotonin 5-HT2A radioligand binding assay ([3H]Ketanserin)
Settings: 0.5 nM [3H]Ketanserin, read-out: Percent Inhibition of ligand binding, Serotonin (1 μM) 5-HT2A
Protocol: Compounds of the invention were incubated with 0.5 nM [^3H]Ketanserin for 60 min at 25° C. Non-specific binding was estimated in the presence of 1 μM Mianserin. Receptor proteins were filtered and washed, the filters were then counted to determine [^3H]Ketanserin specifically bound. Compounds were screened at 1 μM or lower, using 1% DMSO as vehicle. Biochemical assay results are presented as the percent inhibition of specific binding in Table 4.

T1 sequence (P28223 whole entry): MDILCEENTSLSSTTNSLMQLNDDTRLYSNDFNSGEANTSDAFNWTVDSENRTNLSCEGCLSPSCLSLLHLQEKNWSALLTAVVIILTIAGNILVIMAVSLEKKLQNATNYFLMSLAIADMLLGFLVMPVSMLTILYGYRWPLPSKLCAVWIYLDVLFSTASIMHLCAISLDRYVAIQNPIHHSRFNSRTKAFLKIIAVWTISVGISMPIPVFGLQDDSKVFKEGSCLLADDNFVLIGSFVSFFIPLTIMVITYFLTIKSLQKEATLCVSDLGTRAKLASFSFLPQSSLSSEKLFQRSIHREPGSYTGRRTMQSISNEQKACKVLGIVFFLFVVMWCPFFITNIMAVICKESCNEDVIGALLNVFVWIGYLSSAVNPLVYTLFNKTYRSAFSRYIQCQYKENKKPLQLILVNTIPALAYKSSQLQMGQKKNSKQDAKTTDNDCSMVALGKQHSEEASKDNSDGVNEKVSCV

## Cc1ccc2c(c1)c1c(n2CC(O)(c2ccccc2)c2ccc(F)cc2)CCN(C)C1 (stereo not shown) [Compound 1, 2-(2,8-dimethyl-3,4-dihydro-1H-pyrido[4,3-b]indol-5(2H)-yl)-1-(4-fluorophenyl)-1-phenylethanol]
  inhibition at 1 µM: 97%
